According to US8067447B2, “Modulators of glucocorticoid receptor, AP-1, and/or NF-κB activity and use thereof” (Bristol-Myers Squibb Company, priority 2006, dated 2011):
Like-named read-outs stand apart in the source and are kept apart here.

Assays:
[1] = molecular target: T1, human glucocorticoid receptor (Homo sapiens, UniProt P04150); experiment: Glucocorticoid Receptor Binding Assay (I), fluorescence polarization competitor kit (Fluormone GS Red); conditions: purified human recombinant full-length GR 2 nM, 1 nM Fluormone GS Red, FP
T1 construct: purified human recombinant full-length glucocorticoid receptor (2 nM); purchased Invitrogen Part #2893
T1 sequence (P04150 1-777): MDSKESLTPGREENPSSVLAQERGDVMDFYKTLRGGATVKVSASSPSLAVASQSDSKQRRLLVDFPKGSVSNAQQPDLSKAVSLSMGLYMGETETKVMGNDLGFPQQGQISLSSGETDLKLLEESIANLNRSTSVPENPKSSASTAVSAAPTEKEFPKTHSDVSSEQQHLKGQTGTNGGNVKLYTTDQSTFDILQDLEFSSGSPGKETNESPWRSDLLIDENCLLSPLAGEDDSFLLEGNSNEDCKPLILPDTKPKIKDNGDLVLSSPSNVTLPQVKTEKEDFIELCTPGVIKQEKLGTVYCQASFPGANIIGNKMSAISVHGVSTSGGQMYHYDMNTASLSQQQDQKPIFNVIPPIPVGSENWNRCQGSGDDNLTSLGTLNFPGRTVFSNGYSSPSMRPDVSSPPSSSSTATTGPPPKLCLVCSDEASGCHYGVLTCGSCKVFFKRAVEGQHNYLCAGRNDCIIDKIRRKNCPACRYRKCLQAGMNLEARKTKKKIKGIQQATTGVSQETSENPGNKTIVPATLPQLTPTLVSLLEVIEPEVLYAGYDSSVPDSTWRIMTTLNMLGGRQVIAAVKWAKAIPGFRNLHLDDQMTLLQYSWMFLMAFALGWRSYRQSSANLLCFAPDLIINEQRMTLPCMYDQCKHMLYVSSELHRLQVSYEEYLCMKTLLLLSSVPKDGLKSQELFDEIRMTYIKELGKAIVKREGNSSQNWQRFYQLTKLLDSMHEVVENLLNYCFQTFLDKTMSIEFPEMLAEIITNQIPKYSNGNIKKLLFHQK
Method: Briefly, purified human recombinant full-length glucocorticoid receptor (2 nM) was mixed with fluorescently labeled glucocorticoid (1 nM Fluormone GS Red) in the presence or absence of test compound. After two hour incubation at room temperature in the dark, the fluorescence polarization (FP) of the samples was measured. […] Test compounds were analyzed in the concentration range from 8.5E-05 μM to 5 μM.

[2] = tested on: AP-1 induced transcriptional activity; experiment: Cellular Transrepressional Assay (AP-1 luciferase reporter in A549 cells, PMA-activated); format: cell-based; conditions: A549 cells with 7x AP-1 luciferase reporter, 10 ng/ml PMA, read-out: AP-1 (EC50, nM) (Cellular Transrepression Assay)
Method: To measure the ability of test molecules to inhibit AP-1 induced transcriptional activity an A549 cell was utilized which was stably transfected with a plasmid containing 7× AP-1 DNA binding sites (pAP-1-Luc plasmid, Stratagene Co. La Jolla, Calif.) followed by the gene for luciferase. Cells were activated with 10 ng/ml of […] (PMA) plus or minus test molecules for 7 hours. After 7 hours a luciferase reagent was added to measure luciferase enzymatic activity in the cell. After a 10 minute incubation of luciferase reagent with cells, luminescence was measured in a TopCount luminescence counter. Repression of AP-1 activity was calculated as the percentage decrease in the signal induced by PMA alone. Test molecules were analyzed in the concentration range from 0.1 nM to 40 μM. EC50s were determined by using standard curve fitting methods such as Excel fit (Microsoft Co.).

[3] = read-out: GR (Ki, nM) (GR Binding Assay (I))

SMILES | Ki [1, 3] [nM] | EC50 ([2]; Homo sapiens, A549, 7 h) [nM] | Ki ([1]; GR (Ki, nM) (GR Binding Assay (I))) [nM] | EC50 ([2]; 7 hours) [nM]
CC(C)(C(=O)NS(=O)(=O)C(F)(F)F)C(c1ccccc1)c1ccc2c(cnn2-c2ccc(F)cc2)c1 (centres unmarked) [Example 6, 3-(1-(4-fluorophenyl)-1H-indazol-5-yl)-2,2-dimethyl-3-phenyl-N-(trifluoromethylsulfonyl) propanamide] | 77 | > 10000 | – | –
O=C(Nc1nccs1)C1CC1c1ccc2c(cnn2-c2ccc(F)cc2)c1 (centres unmarked) [Example 103, 2-(1-(4-Fluorophenyl)-1H-indazol-5-yl)-N-(thiazol-2-yl)cyclopropanecarboxamide] | 248 | > 10000 | – | –
CC(C)(C(=O)Nc1nncs1)C(c1ccccc1)c1ccc2c(cnn2-c2ccc(Br)cc2)c1 (centres unmarked) [Example 91, 3-(1-(4-bromophenyl)-1H-indazol-5-yl)-2,2-dimethyl-3-phenyl-N-(1,3,4-thiadiazol-2-yl)propanamide] | 29 | 956 | – | –
CC(C)(C(=O)Nc1nccs1)C(c1ccccc1)c1ccc2c(cnn2-c2cccnc2)c1 (centres unmarked) [Example 85, 2,2-dimethyl-3-phenyl-3-(1-(pyridin-3-yl)-1H-indazol-5-yl)-N-(thiazol-2-yl)propanamide] | – | 40 | 7.8 | –
CC(C(=O)Nc1nncs1)C(c1ccccc1)c1ccc2c(cnn2-c2ccc(F)cc2)c1 (single isomer, unassigned) [Example 141-isomerC, 3-(1-(4-Fluorophenyl)-1H-indazol-5-yl)-2-methyl-3-phenyl-N-(1,3,4-thiadiazol-2-yl)propanamide] | – | – | – | 0.23
O=C(CC(c1ccccc1)c1ccc2c(cnn2-c2ccc(F)cc2)c1)Nc1nncs1 (single isomer, unassigned) [136-enant B, 3-(1-(4-Fluorophenyl)-1H-indazol-5-yl)-3-phenyl-N-(1,3,4-thiadiazol-2-yl)propanamide] | 6 | – | – | 13
CC(C)(C(=O)Nc1nncs1)C(c1ccccc1)c1ccc2c(cnn2CCc2ccccc2)c1 (centres unmarked) [Example 74, 2,2-dimethyl-3-(1-phenethyl-1H-indazol-5-yl)-3-phenyl-N-(1,3,4-thiadiazol-2-yl)propanamide] | 152 | > 10000 | – | –
CC(C)(C(=O)Nc1nncs1)C(c1ccccc1)c1ccc2c(cnn2CCO)c1 (centres unmarked) [Example 65, 3-(1-(2-hydroxyethyl)-1H-indazol-5-yl)-2,2-dimethyl-3-phenyl-N-(1,3,4-thiadiazol-2-yl)propanamide] | 47 | 550 | – | –
CC(C)(C(=O)Nc1nccs1)C(c1ccccc1)c1ccc2[nH]c(-c3nccs3)cc2c1 (centres unmarked) [Example 117, 2,2-dimethyl-3-phenyl-N-(thiazol-2-yl)-3-(2-(thiazol-2-yl)-1H-indol-5-yl)propanamide] | 57 | 3610 | – | –
CC(C)(Cc1ccc2c(cnn2-c2ccc(F)cc2)c1)C(=O)Nc1nncs1 [Example 32, 3-(1-(4-Fluorophenyl)-1H-indazol-5-yl)-2,2-dimethyl-N-(1,3,4-thiadiazol-2-yl)propanamide] | 84 | 4320 | – | –
CC(C)(C(=O)Nc1nncs1)C(c1ccccc1)c1ccc2c(cnn2-c2ccccn2)c1 (centres unmarked) [Example 80, 2,2-dimethyl-3-phenyl-3-(1-(pyridin-2-yl)-1H-indazol-5-yl)-N-(1,3,4-thiadiazol-2-yl)propanamide] | 8.1 | 127 | – | –
O=C(Nc1nccs1)C1CC1(c1ccccc1)c1ccc2c(cnn2-c2ccc(F)cc2)c1 (stereo not drawn) [Example 98, Trans-2-(1-(4-fluorophenyl)-1H-indazol-5-yl)-2-phenyl-N-(thiazol-2-yl)cyclopropanecarboxamide] | 15 | – | – | 34
Cc1ccc(-c2cc3cc(C(c4ccccc4)C(C)(C)C(=O)Nc4nccs4)ccc3[nH]2)cc1 (centres unmarked) [Example 119, 2,2-dimethyl-3-phenyl-N-(thiazol-2-yl)-3-(2-p-tolyl-1H-indol-5-yl)propanamide] | 146 | 2130 | – | –
CC(C)CCn1cc2cc(C(c3ccccc3)C(C)(C)C(=O)Nc3nncs3)ccc2n1 (centres unmarked) [Example 67, 3-(2-isopentyl-2H-indazol-5-yl)-2,2-dimethyl-3-phenyl-N-(1,3,4-thiadiazol-2-yl)propanamide] | 25 | 532 | – | –
CC(C)(C)CNC(=O)C(C)(C)C(c1ccccc1)c1ccc2c(cnn2-c2ccc(F)cc2)c1 (centres unmarked) [Example 7, 3-(1-(4-fluorophenyl)-1H-indazol-5-yl)-2,2-dimethyl-N-neopentyl-3-phenylpropanamide] | 2.9 | 904 | – | –
CC(C)(C(=O)Nc1nncs1)C(c1ccccc1)c1ccc2c(cnn2-c2ccc(C(F)(F)F)cc2)c1 (centres unmarked) [Example 90, 2,2-dimethyl-3-phenyl-N-(1,3,4-thiadiazol-2-yl)-3-(1-(4-(trifluoro-methyl)phenyl)-1H-indazol-5-yl)propanamide] | 85 | > 10000 | – | –
CC(C)(C(=O)Nc1nccs1)C(c1ccccc1)c1ccc2[nH]c(-c3ccccn3)cc2c1 (single isomer, unassigned) [111-enant A, 2,2-Dimethyl-3-phenyl-3-(2-(pyridin-2-yl)-1H-indol-5-yl)-N-(thiazol-2-yl)propanamide] | 73 | 1090 | – | –
CC(C)(C(=O)Nc1nccs1)C(c1ccccc1)c1ccc2[nH]ncc2c1 (centres unmarked) [Example 29, 3-(1H-Indazol-5-yl)-2,2-dimethyl-3-phenyl-N-(thiazol-2-yl)propanamide] | 7.8 | 126 | – | –
CC(C)(C(=O)Nc1ccsc1)C(c1ccccc1)c1ccc2c(cnn2-c2ccc(F)cc2)c1 (centres unmarked) [Example 11, 3-(1-(4-fluorophenyl)-1H-indazol-5-yl)-2,2-dimethyl-3-phenyl-N-(thiophen-3-yl)propanamide] | 11 | 73 | – | –
CC(C)(Cc1ccc2c(cnn2-c2ccc(F)cc2)c1)C(=O)Nc1nccs1 [Example 31, 3-(1-(4-Fluorophenyl)-1H-indazol-5-yl)-2,2-dimethyl-N-(thiazol-2-yl)propanamide] | 98 | > 10000 | – | –
CC(C)(C(=O)Nc1nc2ccccc2s1)C(c1ccccc1)c1ccc2c(cnn2-c2ccc(F)cc2)c1 (centres unmarked) [Example 23, N-(benzyl[d]thiazol-2-yl)-3-(1-(4-fluorophenyl)-1H-indazol-5-yl)-2,2-dimethyl-3-phenylpropanamide] | 60 | > 10000 | – | –
COCCCn1cc2cc(C(c3ccccc3)C(C)(C)C(=O)Nc3nncs3)ccc2n1 (centres unmarked) [Example 69, 3-(2-(3-methoxy-propyl)-2H-indazol-5-yl)-2,2-dimethyl-3-phenyl-N-(1,3,4-thiadiazol-2-yl)propanamide] | 84 | > 10000 | – | –
CC(C)Cn1ncc2cc(C(c3ccccc3)C(C)(C)C(=O)Nc3nncs3)ccc21 (centres unmarked) [Example 70, 3-(1-isobutyl-1H-indazol-5-yl)-2,2-dimethyl-3-phenyl-N-(1,3,4-thiadiazol-2-yl)propanamide] | 19 | 1020 | – | –
CC(C)(C(=O)Nc1nccs1)C(c1ccccc1)c1ccc2c(ccn2-c2ccc(F)cc2)c1 (centres unmarked) [Example 110, 3-(1-(4-Fluorophenyl)-1H-indol-5-yl)-2,2-dimethyl-3-phenyl-N-(thiazol-2-yl)propanamide] | 13 | 220 | – | –
CC(C)(C(=O)Nc1nncs1)C(c1ccccc1)c1ccc2[nH]c(-c3ccncc3)cc2c1 (centres unmarked) [Example 116, 2,2-dimethyl-3-phenyl-3-(2-(pyridin-4-yl)-1H-indol-5-yl)-N-(1,3,4-thiadiazol-2-yl)propanamide] | 43 | 3260 | – | –
O=C(Nc1nccs1)C1CC1(c1ccccc1)c1ccc2c(cnn2-c2ccc(F)cc2)c1 (stereo not drawn) [Example 99, Cis-2-(1-(4-fluorophenyl)-1H-indazol-5-yl)-2-phenyl-N-(thiazol-2-yl)cyclopropanecarboxamide] | – | – | – | > 10000
